12 compounds from PubChem BioAssay AID330 (DTP/NCI, 2004) can be followed below.

Values joined by “and” are separate entries in the source; they are usually repeats but may differ in a detail not shown here. Equal values may be shown once. Toxic doses and inconclusive results are not listed.

In this test the test system is P388 leukemia ip, CD2F1 mice, survival T/C. Description: NCI In Vivo Anticancer Drug Screen. Data for tumor model P388 Leukemia (intraperitoneal) in CD2F1 (CDF1) mice. Particulars: endpoint: median survival time, higher = longer survival. The procedure, abridged:
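Mice carrying the transplanted tumor received test compound or vehicle. Survival was recorded in each group, and the value is the treated-group measurement divided by that of the vehicle-treated control group.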

Setting [1] is: dose: 50.0 mg/kg/injection, schedule: Q01DX005 (ip), vehicle: Klucel (hydroxypropylcellulose) (HPC).
Where [2] appears, read: dose: 100.0 mg/kg/injection, schedule: Q01DX005 (ip), vehicle: Klucel (hydroxypropylcellulose) (HPC).
Where [3] appears, read: dose: 200.0 mg/kg/injection, schedule: Q01DX005 (ip), vehicle: Klucel (hydroxypropylcellulose) (HPC).

Take `CCOC(=O)Nc1c2ccccc2c(NC(=O)OCC)c2ccccc12`: the T/C was 105 % of control (dose: 50.0 mg/kg/injection, schedule: Q01DX001 (ip), vehicle: saline with Tween-80); 100 % of control (dose: 100.0 mg/kg/injection, schedule: Q01DX001 (ip), vehicle: saline with Tween-80); 102 % of control (dose: 200.0 mg/kg/injection, schedule: Q01DX001 (ip), vehicle: saline with Tween-80); 96 % of control (dose: 400.0 mg/kg/injection, schedule: Q01DX001 (ip), vehicle: saline with Tween-80).

Turning to `O=c1oc2ccccc2c(O)c1C(c1ccc2c(c1)OCO2)N1CCCC1` (stereo not given), the T/C is 100 % of control (dose: 15.0 mg/kg/injection, schedule: Q01DX005 (ip), vehicle: saline with Tween-80); 102 % of control (dose: 30.0 mg/kg/injection, schedule: Q01DX005 (ip), vehicle: saline with Tween-80); 99 % of control and 103 % of control (dose: 60.0 mg/kg/injection, schedule: Q01DX005 (ip), vehicle: saline with Tween-80).

On to `COc1ccc(C2(C)C=C(C)C=C(C)C2=O)cc1` (stereo not given), for which the T/C by setting is: (dose: 50.0 mg/kg/injection, schedule: Q01DX009 (ip), vehicle: saline with Tween-80) 100 % of control; (dose: 100.0 mg/kg/injection, schedule: Q01DX009 (ip), vehicle: saline with Tween-80) 106 % of control; (dose: 200.0 mg/kg/injection, schedule: Q01DX009 (ip), vehicle: saline with Tween-80) 100 % of control.

Regarding `COc1ccc(CCN2C=CC(C#N)C=C2)cc1OC`, the T/C is, setting by setting: under setting [1], 91 % of control; under setting [2], 101 % of control; under setting [3], 98 % of control.

Consider `C/C(N=NC(=S)N1CCC(C)CC1)=C1\C=CC=CN1O`, for which the T/C reads like this: (dose: 50.0 mg/kg/injection, schedule: Q01DX005 (ip), vehicle: saline with Tween-80) 103 % of control; (dose: 100.0 mg/kg/injection, schedule: Q01DX005 (ip), vehicle: saline with Tween-80) 103 % of control; (dose: 200.0 mg/kg/injection, schedule: Q01DX005 (ip), vehicle: saline with Tween-80) 108 % of control.

Regarding `NC(=O)C1=C(C(=O)O)CCC1`, the T/C by setting is: (dose: 25.0 mg/kg/injection, schedule: Q01DX009 (ip), vehicle: distilled water + Tween-80) 99 % of control; (dose: 50.0 mg/kg/injection, schedule: Q01DX009 (ip), vehicle: distilled water + Tween-80) 100 % of control; (dose: 100.0 mg/kg/injection, schedule: Q01DX009 (ip), vehicle: distilled water + Tween-80) 98 % of control; (dose: 200.0 mg/kg/injection, schedule: Q01DX009 (ip), vehicle: distilled water + Tween-80) 96 % of control; (dose: 400.0 mg/kg/injection, schedule: Q01DX009 (ip), vehicle: distilled water + Tween-80) 92 % of control.

In the case of `COC(F)C(C)=O` (stereo not given), the T/C runs as follows: (dose: 100.0 mg/kg/injection, schedule: Q01DX001 (ip), vehicle: other) 103 % of control; (dose: 200.0 mg/kg/injection, schedule: Q01DX001 (ip), vehicle: other) 101 % of control; (dose: 400.0 mg/kg/injection, schedule: Q01DX001 (ip), vehicle: other) 112 % of control.

Take `C/C(=C\c1ccc([N+](=O)[O-])cc1)C(=O)N1CCCCC1`: the T/C is, setting by setting: under setting [1], 105 % of control; under setting [2], 96 % of control; under setting [3], 96 % of control.

With `N#CSCCC(=O)Nc1ccccc1`, the T/C was 102 % of control (dose: 6.25 mg/kg/injection, schedule: Q01DX005 (ip), vehicle: Klucel (hydroxypropylcellulose) (HPC)); 101 % of control (dose: 12.5 mg/kg/injection, schedule: Q01DX005 (ip), vehicle: Klucel (hydroxypropylcellulose) (HPC)); 104 % of control (dose: 25.0 mg/kg/injection, schedule: Q01DX005 (ip), vehicle: Klucel (hydroxypropylcellulose) (HPC)).

Regarding `CC1=NCCc2cc3c(cc21)OCO3`, the T/C is 99 % of control (dose: 25.0 mg/kg/injection, schedule: Q01DX001 (ip), vehicle: saline + alcohol) and 97 % of control (dose: 50.0 mg/kg/injection, schedule: Q01DX001 (ip), vehicle: saline + alcohol).

As for `NC(=O)c1cn(C2OC(CO)C(O)C2O)c2ncnc(N)c12` (stereo not given), the T/C (dose: 0.06 mg/kg/injection, schedule: Q03HX024 (ip), vehicle: saline) was 105 % of control; the T/C (dose: 0.13 mg/kg/injection, schedule: Q01DX009 (ip), vehicle: saline) is 100 % of control; the T/C (dose: 0.13 mg/kg/injection, schedule: Q03HX008 (ip), vehicle: saline) was 111 % of control; the T/C (dose: 0.13 mg/kg/injection, schedule: Q03HX016 (ip), vehicle: saline) was 122 % of control; the T/C (dose: 0.13 mg/kg/injection, schedule: Q03HX024 (ip), vehicle: saline) is 111 % of control; the T/C (dose: 0.25 mg/kg/injection, schedule: Q01DX009 (ip), vehicle: saline) was 111 % of control. Moreover, the T/C (dose: 0.25 mg/kg/injection, schedule: Q03HX008 (ip), vehicle: saline) was 111 % of control; the T/C (dose: 0.25 mg/kg/injection, schedule: Q03HX016 (ip), vehicle: saline) was 111 % of control; the T/C (dose: 0.25 mg/kg/injection, schedule: Q03HX024 (ip), vehicle: saline) was 111 % of control; the T/C (dose: 0.5 mg/kg/injection, schedule: Q01DX005 (ip), vehicle: saline with Tween-80) is 151 % of control; the T/C (dose: 0.5 mg/kg/injection, schedule: Q01DX009 (ip), vehicle: saline) was 105 % of control; the T/C (dose: 0.5 mg/kg/injection, schedule: Q01DX009 (ip), vehicle: suspension in saline) was 154 % of control. In addition, the T/C is, setting by setting: (dose: 0.5 mg/kg/injection, schedule: Q03HX008 (ip), vehicle: saline) 111 % of control; (dose: 0.5 mg/kg/injection, schedule: Q03HX016 (ip), vehicle: saline) 116 % of control; (dose: 0.5 mg/kg/injection, schedule: Q03HX024 (ip), vehicle: saline) 111 % of control; (dose: 0.5 mg/kg/injection, schedule: Q04DX003 (ip), vehicle: saline) 105 % of control; (dose: 1.0 mg/kg/injection, schedule: Q01DX001 (ip), vehicle: saline) 111 % of control; (dose: 1.0 mg/kg/injection, schedule: Q01DX005 (ip), vehicle: saline with Tween-80) 161 % of control. Further, the T/C by setting is: (dose: 1.0 mg/kg/injection, schedule: Q01DX009 (ip), vehicle: saline) 111 % of control; (dose: 1.0 mg/kg/injection, schedule: Q01DX009 (ip), vehicle: suspension in saline) 154 % of control; (dose: 1.0 mg/kg/injection, schedule: Q03HX008 (ip), vehicle: saline) 94 % of control; (dose: 1.0 mg/kg/injection, schedule: Q03HX016 (ip), vehicle: saline) 122 % of control; (dose: 1.0 mg/kg/injection, schedule: Q04DX003 (ip), vehicle: saline) 116 % of control; (dose: 1.0 mg/kg/injection, schedule: Q08DX002 (ip), vehicle: saline) 111 % of control. Besides, the T/C is 111 % of control (dose: 2.0 mg/kg/injection, schedule: Q01DX001 (ip), vehicle: saline); 169 % of control (dose: 2.0 mg/kg/injection, schedule: Q01DX005 (ip), vehicle: saline with Tween-80); 100 % of control (dose: 2.0 mg/kg/injection, schedule: Q01DX009 (ip), vehicle: saline); 94 % of control (dose: 2.0 mg/kg/injection, schedule: Q01DX009 (ip), vehicle: suspension in saline); 111 % of control (dose: 2.0 mg/kg/injection, schedule: Q04DX003 (ip), vehicle: saline); 111 % of control (dose: 2.0 mg/kg/injection, schedule: Q08DX002 (ip), vehicle: saline). For the same compound, the T/C was 122 % of control (dose: 4.0 mg/kg/injection, schedule: Q01DX001 (ip), vehicle: saline); 122 % of control and 118 % of control (dose: 4.0 mg/kg/injection, schedule: Q04DX003 (ip), vehicle: saline); 116 % of control (dose: 4.0 mg/kg/injection, schedule: Q08DX002 (ip), vehicle: saline); 111 % of control (dose: 8.0 mg/kg/injection, schedule: Q01DX001 (ip), vehicle: saline); 116 % of control (dose: 8.0 mg/kg/injection, schedule: Q08DX002 (ip), vehicle: saline).

`CC1(CCl)CC1(Cl)Cl` (stereo not given): the T/C reads like this: (dose: 50.0 mg/kg/injection, schedule: Q01DX005 (ip), vehicle: saline) 103 % of control; (dose: 100.0 mg/kg/injection, schedule: Q01DX005 (ip), vehicle: saline) 103 % of control; (dose: 200.0 mg/kg/injection, schedule: Q01DX005 (ip), vehicle: saline) 104 % of control.
